The subject of assay [1] is 17 highly resistant MRSA strains. Kind of assay: In vitro activity: minimum inhibitory concentration (MIC) by the agar dilution method in Mueller Hinton agar, 17 highly resistant MRSA strains. The assay is classed as cell-based, Methicillin resistant Staphylococcus aureus (MRSA). Particulars: Table 1, substance alone, inoculum =10^5 CFU/spot. The procedure:
In vitro activity was determined by minimum inhibitory concentration (MIC) by the agar dilution method in Mueller Hinton agar inoculum =10^5 CFU/spot.
In general terms: In agar dilution, organisms are placed on agar that contains the substance at set levels.

The next assay relates to MRSA. Particulars: alone; in words; cited from earlier work.
In a further assay the test system is β-lactamase. Particulars: in words; cited from earlier work.
Assay [2] relates to Gram-positive and Gram negative pathogens. Particulars: carbapenems alone; in words; cited from earlier work.

On to `C[C@@H](O)[C@H]1C(=O)N2C(C(=O)O)=C(S[C@@H]3CN[C@H](C(=O)N(C)C)C3)[C@H](C)[C@H]12` [Meropenem], for which, in assay [1], the MIC50 (as a rule, an inhibitory concentration at the 50% level, which refers to growth in some studies and to a panel of isolates in others) was > 16 µg/mL; the MIC90 (in general, the lowest concentration that inhibits either 90% of growth or 90% of the strains tested, depending on the study) was > 16 µg/mL. In the assay with MRSA, the “activity against MRSA” value is “do not have good activity against MRSA”. In addition, in the assay on β-lactamase, the β-lactamase inhibition result is “good β-lactamase inhibitors”. In addition, the “spectrum of antibacterial activity” value in assay [2] is “broad spectrum of antibacterial activity”.
`C[C@@H](O)[C@H]1C(=O)N2C(C(=O)O)=C(SCCN=CN)C[C@H]12` [Imipenem]: in assay [1], the MIC50 is > 16 µg/mL and the MIC90 is > 16 µg/mL. Besides, the “activity against MRSA” value in the assay on MRSA was “do not have good activity against MRSA”. Moreover, in the assay on β-lactamase, the β-lactamase inhibition entry is “good β-lactamase inhibitors”. Also, in assay [2], the “spectrum of antibacterial activity” value is “broad spectrum of antibacterial activity”.

The record behind these values is patent US6150350A, “Antimicrobial compositions” (Hoffman-la Roche Inc., priority 1997, dated 2000).
